Data: ChEMBL document CHEMBL1201862, “PubChem BioAssay data set” (2004)
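All cell lines were grown in 96-well plates and treated with compound for 48 hours. GI50 marks 50% less growth.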 Activity calls are given as the source filed them. No stated cut-off is given here; in the data, active = GI50 up to about 1.1 µM and inactive = higher.

What was measured:
Assay in all cases: DTP human tumour cell line panel, 48 h
RPMI-8226 = test system: RPMI-8226
NCI-H226 = test system: NCI-H226
SF-539 = test system: SF-539
SK-MEL-2 = test system: SK-MEL-2
SK-MEL-28 = test system: SK-MEL-28
Malme-3M = test system: Malme-3M
HT-29 = test system: HT-29
SK-OV-3 = test system: SK-OV-3
SNB-75 = test system: SNB-75
HCC 2998 = test system: HCC 2998
HL-60 = test system: HL-60
A498 = test system: A498
KM12 = test system: KM12
U-251 = test system: U-251
PC-3 = test system: PC-3
MDA-MB-435 = test system: MDA-MB-435
NCI/ADR-RES = test system: NCI/ADR-RES
MDA-N = test system: MDA-N
Hs-578T = test system: Hs-578T
DU-145 = test system: DU-145

Measured: GI50

Oc1ccc2c(c1)OCC1(O)Cc3cc(O)c(O)cc3C21 (stereo unspecified)
inactive: RPMI-8226 26.5 µM | NCI-H226 > 52.5 µM | SF-539 17 µM | SK-MEL-2 27.1 µM | SK-MEL-28 17.5 µM | Malme-3M 16.9 µM | HT-29 21.3 µM | SK-OV-3 39.9 µM | SNB-75 24.3 µM | HCC 2998 21.2 µM | HL-60 25.6 µM | A498 19.1 µM | KM12 32.7 µM | U-251 18.7 µM

CCCC(=O)Oc1ccc(/C=N/NC(N)=S)nc1
inactive: RPMI-8226 > 100 µM | NCI-H226 > 100 µM | SF-539 36.5 µM | SK-MEL-2 > 100 µM | SK-MEL-28 > 100 µM | Malme-3M > 100 µM | HT-29 > 100 µM | SK-OV-3 > 100 µM | SNB-75 > 100 µM | HCC 2998 > 100 µM | HL-60 45.1 µM | A498 > 100 µM | KM12 > 100 µM | U-251 > 100 µM

COc1cc(C2c3cc4c(cc3C3OC[C@@H]2C3CO)OCO4)cc(OC)c1OC (stereo partly specified)
inactive: RPMI-8226 38.6 µM | NCI-H226 20.2 µM | SK-MEL-2 40.2 µM | SK-MEL-28 > 100 µM | Malme-3M 67.6 µM | HT-29 28.4 µM | PC-3 49.3 µM | SK-OV-3 54.2 µM | MDA-MB-435 6.81 µM | SNB-75 25.6 µM | NCI/ADR-RES 20.1 µM | HL-60 2.66 µM | MDA-N 8.28 µM | Hs-578T 34.4 µM | A498 42 µM | KM12 23 µM | U-251 34.7 µM

Cc1cc(Cc2c(F)c(F)c(C(c3cc(C)no3)c3c(F)c(F)c(F)c(F)c3F)c(F)c2F)on1 (stereo unspecified)
inactive: RPMI-8226 33.5 µM | NCI-H226 > 100 µM | SF-539 17.9 µM | SK-MEL-2 9.71 µM | DU-145 > 100 µM | SK-MEL-28 > 38.8 µM | Malme-3M > 100 µM | HT-29 6.08 µM | PC-3 69.5 µM | MDA-MB-435 3.04 µM | SNB-75 86.7 µM | NCI/ADR-RES > 28.2 µM | HCC 2998 > 27.9 µM | HL-60 5.13 µM | MDA-N 3.04 µM | A498 > 100 µM | KM12 19.5 µM | U-251 18.4 µM

COC(=O)c1ccc(C=C(C#N)C#N)cc1
inactive: RPMI-8226 22.5 µM | NCI-H226 24 µM | SF-539 19.5 µM | SK-MEL-2 18.4 µM | SK-MEL-28 19.3 µM | Malme-3M 20.7 µM | HT-29 33.4 µM | SK-OV-3 > 100 µM | SNB-75 27.4 µM | HCC 2998 15.6 µM | HL-60 28.4 µM | A498 > 100 µM | KM12 31.6 µM | U-251 24.4 µM

CC(C)(C)OC(=O)NCCCC(=O)NC1(c2cc3ccccc3s2)CCCCC1
inactive: RPMI-8226 11.7 µM | SF-539 15.5 µM | DU-145 24.8 µM | SK-MEL-28 14.1 µM | Malme-3M 16.2 µM | HT-29 13.1 µM | SK-OV-3 29.6 µM | MDA-MB-435 15.4 µM | SNB-75 5.11 µM | NCI/ADR-RES 16.7 µM | HCC 2998 21.6 µM | HL-60 6.76 µM | MDA-N 15.8 µM | Hs-578T 24.6 µM | A498 17.6 µM | KM12 17 µM

N#Cc1c2c(c(Nc3cccc(C(F)(F)F)c3)n3c1nc1ccccc13)CCCC2
inactive: RPMI-8226 19.4 µM | NCI-H226 26.5 µM | SF-539 16.3 µM | DU-145 21.3 µM | SK-MEL-28 18.2 µM | Malme-3M 21.3 µM | HT-29 16.2 µM | SK-OV-3 17.1 µM | MDA-MB-435 28.4 µM | SNB-75 10.6 µM | NCI/ADR-RES 14.8 µM | MDA-N 15 µM | A498 26.8 µM | KM12 81.3 µM | U-251 11.5 µM

CCOC(=O)C(NC(=O)c1ccccc1)(N1CCN(c2cc3c(cc2F)c(=O)c(C(=O)O)cn3C2CC2)CC1)C(F)(F)F (stereo unspecified)
inactive: RPMI-8226 23.1 µM | NCI-H226 21.2 µM | SF-539 15.2 µM | SK-MEL-2 18.7 µM | DU-145 27.5 µM | SK-MEL-28 28 µM | Malme-3M 20.2 µM | PC-3 23.6 µM | SK-OV-3 28.6 µM | MDA-MB-435 21.1 µM | SNB-75 24 µM | HCC 2998 22.5 µM | HL-60 14.4 µM | MDA-N 21.1 µM | Hs-578T 26.2 µM | A498 28.1 µM | KM12 16.8 µM | U-251 29.9 µM

CCOC(=O)CCC(NC(=O)c1ccc(OCc2ccc3nc(OC)c(OC)nc3c2)cc1)C(=O)OCC (stereo unspecified)
inactive: RPMI-8226 70.8 µM | NCI-H226 > 100 µM | SF-539 57.3 µM | SK-MEL-2 23.3 µM | DU-145 69.5 µM | SK-MEL-28 44.6 µM | Malme-3M 21.4 µM | HT-29 > 100 µM | PC-3 36.4 µM | SK-OV-3 > 100 µM | MDA-MB-435 27.3 µM | SNB-75 52.6 µM | HCC 2998 50.1 µM | HL-60 31.7 µM | MDA-N 24 µM | Hs-578T 33.9 µM | A498 71 µM | KM12 > 100 µM | U-251 > 100 µM

Cn1c2ccccc2c2c(-c3ccccc3)[n+]3ccccc3nc21
inactive: RPMI-8226 17.8 µM | SF-539 34.8 µM | SK-MEL-2 20.2 µM | DU-145 53.3 µM | SK-MEL-28 20.5 µM | Malme-3M 24.3 µM | HT-29 53.7 µM | PC-3 26.2 µM | SK-OV-3 > 100 µM | MDA-MB-435 20.6 µM | SNB-75 19.5 µM | NCI/ADR-RES > 100 µM | HL-60 24.8 µM | Hs-578T 34.8 µM | A498 > 100 µM | KM12 17.1 µM | U-251 24.8 µM

O=C1[C@@H]2C(c3ccccc3Br)=NO[C@@H]2C(=O)N1c1ccc(Cc2ccc(N3C(=O)[C@H]4C(c5ccccc5Br)=NO[C@H]4C3=O)cc2)cc1
inactive: RPMI-8226 > 100 µM | NCI-H226 96.4 µM | SF-539 > 100 µM | SK-MEL-2 > 100 µM | SK-MEL-28 > 100 µM | Malme-3M > 100 µM | HT-29 > 100 µM | SK-OV-3 > 100 µM | SNB-75 77.3 µM | HCC 2998 > 100 µM | HL-60 > 100 µM | A498 > 100 µM | KM12 > 100 µM | U-251 > 100 µM

COCCOC(=O)NCn1cc(-c2ccccc2)nn1
inactive: RPMI-8226 > 100 µM | NCI-H226 13.8 µM | SF-539 > 100 µM | SK-MEL-2 > 100 µM | DU-145 > 100 µM | SK-MEL-28 > 100 µM | Malme-3M > 100 µM | HT-29 > 100 µM | PC-3 > 100 µM | MDA-MB-435 > 100 µM | NCI/ADR-RES > 100 µM | HCC 2998 > 100 µM | HL-60 > 100 µM | KM12 > 100 µM | U-251 > 100 µM

CN(C)C(=O)N1N[C@H](c2ccccc2)[C@@H]1c1ccccc1
inactive: RPMI-8226 > 100 µM | NCI-H226 > 100 µM | SF-539 > 100 µM | SK-MEL-2 > 100 µM | DU-145 > 100 µM | SK-MEL-28 > 100 µM | Malme-3M > 100 µM | PC-3 48 µM | SK-OV-3 > 100 µM | MDA-MB-435 > 100 µM | SNB-75 > 100 µM | NCI/ADR-RES > 100 µM | HCC 2998 > 100 µM | MDA-N > 100 µM | A498 > 100 µM | KM12 > 100 µM | U-251 > 100 µM

Cc1c(N/C=C(\C#N)C(=O)c2ccc(Cl)cc2)c(=O)n(-c2ccccc2)n1C
inactive: RPMI-8226 34.6 µM | NCI-H226 54 µM | SF-539 > 100 µM | SK-MEL-2 62.1 µM | DU-145 > 100 µM | SK-MEL-28 > 100 µM | Malme-3M > 100 µM | PC-3 > 100 µM | SK-OV-3 > 100 µM | MDA-MB-435 34.9 µM | SNB-75 > 100 µM | NCI/ADR-RES 43.9 µM | HCC 2998 > 100 µM | HL-60 38.7 µM | MDA-N > 100 µM | A498 48.8 µM | KM12 > 100 µM | U-251 > 100 µM

N#Cc1c2ccc([N+](=O)[O-])cc2c(=O)n2c1sc1ccc(C(F)(F)F)cc12
inactive: RPMI-8226 > 100 µM | NCI-H226 > 100 µM | SF-539 > 100 µM | DU-145 > 100 µM | SK-MEL-28 > 100 µM | Malme-3M > 100 µM | HT-29 > 100 µM | SK-OV-3 > 100 µM | MDA-MB-435 > 100 µM | SNB-75 > 100 µM | NCI/ADR-RES > 100 µM | A498 > 100 µM | KM12 > 100 µM | U-251 > 100 µM

N=C(N)N/N=C/c1c(-c2cc([N+](=O)[O-])c(Cl)cc2Cl)nc2n1CCS2
inactive: RPMI-8226 7.6 µM | NCI-H226 34.4 µM | SF-539 42.5 µM | SK-MEL-2 3.13 µM | DU-145 27.6 µM | SK-MEL-28 5.16 µM | Malme-3M 24.5 µM | HT-29 7.08 µM | PC-3 13.2 µM | MDA-MB-435 9.38 µM | NCI/ADR-RES > 100 µM | HCC 2998 2.55 µM | HL-60 5.08 µM | Hs-578T 27.9 µM | A498 77.3 µM | KM12 4.83 µM | U-251 3.21 µM

COC(=O)C1C=CCON2CCc3c(n(S(=O)(=O)c4ccccc4)c4ccccc34)C12 (stereo unspecified)
inactive: RPMI-8226 14.5 µM | NCI-H226 > 46.2 µM | SF-539 > 12.8 µM | SK-MEL-2 > 100 µM | SK-MEL-28 > 100 µM | Malme-3M > 64.7 µM | HT-29 43.4 µM | SK-OV-3 > 61.9 µM | SNB-75 79.3 µM | HCC 2998 51.5 µM | HL-60 27 µM | A498 > 100 µM | KM12 35.2 µM | U-251 25.2 µM
